In patent US11072609B2, “Method for preparing halogenated imidazopyridine derivatives” (Bayer Aktiengesellschaft, priority 2017, dated 2021):

Key:
[1] = log P by HPLC on reversed-phase column (C 18), EEC Directive 79/831 Annex V.A8; format: physicochemical; conditions: reversed-phase C18 HPLC column; HPLC-MS, reversed-phase C 18, 55° C.; acidic or neutral range not stated
Method: The log P values are measured according to EEC Directive 79/831 Annex V.A8 by HPLC (high-performance liquid chromatography) on a reversed-phase column (C 18). Temperature: 55° C. The LC-MS determination in the acidic range is carried out at pH 2.7 using the mobile phases 0.1% aqueous formic acid and acetonitrile (contains 0.1% formic acid); linear gradient from 10% acetonitrile to 95% acetonitrile. The LC-MS determination in the neutral range is carried out at pH 7.8 using the mobile phases 0.001 molar aqueous ammonium bicarbonate solution and acetonitrile; linear gradient from 10% acetonitrile to 95% acetonitrile. Calibration is carried out using unbranched alkan-2-ones (having 3 to 16 carbon atoms) with known log P values (log P values determined on the basis of the retention times by linear interpolation between two successive alkanones).

Spodoptera frugiperda = assay: Spodoptera frugiverda - spray test; format: in vivo; conditions: application rate 100 g/ha; maize leaf discs, caterpillars; after 7 days
Method: Spodoptera frugiverda—Spray Test [table] To produce a suitable active ingredient formulation, 1 part by weight of active ingredient is dissolved with the specified parts by weight of solvent and made up to the desired concentration with water containing an emulsifier concentration of 1000 ppm. To produce further test concentrations, the formulation is diluted with emulsifier-containing water. Leaf discs of maize (Zea mays) are sprayed with an active ingredient formulation of the desired concentration and, after drying, populated with caterpillars of the armyworm (Spodoptera frugiperda). After 7 days, the efficacy in % is determined. 100% means that all the caterpillars have been killed; 0% means that no caterpillar has been killed.

Myzus persicae [2] = assay: Myzus persicae - oral test; format: in vivo; conditions: application rate 4 ppm; after 5 days; 100% = all aphids killed
Method: Myzus persicae—Oral Test Solvent: 100 parts by weight of acetone To produce a suitable active ingredient formulation, 1 part by weight of active ingredient is dissolved with the stated parts by weight of solvent and made up to the desired concentration with water. 50 μl of the active ingredient formulation are transferred into microtitre plates and made up to a final volume of 200 μl with 150 μl of IPL41 insect medium (33%+15% sugar). Subsequently, the plates are sealed with parafilm, which a mixed population of green peach aphids (Myzus persicae) within a second microtitre plate is able to puncture and imbibe the solution. After 5 days, the efficacy in % is determined. 100% means that all the aphids have been killed; 0% means that no aphids have been killed.

Myzus persicae [3] = assay: Myzus persicae - spray test; format: in vivo; conditions: Chinese cabbage leaf discs, after 5 days
Method: Myzus persicae—Spray Test [table] To produce a suitable active ingredient formulation, 1 part by weight of active ingredient is dissolved with the specified parts by weight of solvent and made up to the desired concentration with water containing an emulsifier concentration of 1000 ppm. To produce further test concentrations, the formulation is diluted with emulsifier-containing water. Discs of Chinese cabbage leaves (Brassica pekinensis) infested by all stages of the green peach aphid (Myzus persicae) are sprayed with an active ingredient formulation of the desired concentration. After 5 days, the efficacy in % is determined. 100% means that all the aphids have been killed; 0% means that no aphids have been killed.

Phaedon cochleariae = Phaedon cochleariae - spray test; format: in vivo; conditions: application rate 100 g/ha; Chinese cabbage leaf discs, larvae; after 7 days
Method: Phaedon cochleariae—Spray Test
To produce a suitable active ingredient formulation, 1 part by weight of active ingredient is dissolved with the specified parts by weight of solvent and made up to the desired concentration with water containing an emulsifier concentration of 1000 ppm. To produce further test concentrations, the formulation is diluted with emulsifier-containing water.
Discs of Chinese cabbage leaves (Brassica pekinensis) are sprayed with an active ingredient formularation of the desired concentration and, after drying, populated with larvae of the mustard beetle (Phaedon cochleariae).
After 7 days, the efficacy in % is determined. 100% means that all the beetle larvae have been killed; 0% means that no beetle larvae have been killed.

Structure (SMILES)	chromatographic logP [1]	efficacy (Myzus persicae [2]) [%]	also measured
CCSc1ccc(Cl)nc1-c1nc2cc(C(F)(F)F)nc(C)c2n1C [Example 3, 2-[6-chloro-3-(ethylsulfanyl)pyridin-2-yl]-3,4-dimethyl-6-(trifluoromethyl)-3H-imidazo[4,5-c]pyridine]	3.23		
CCSc1ccc(Cl)nc1-c1nc2cc(C(F)(F)F)nc(C#N)c2n1C [Example 5, 2-[6-chloro-3-(ethylsulfanyl)pyridin-2-yl]-3-methyl-6-(trifluoromethyl)-3H-imidazo[4,5-c]pyridine-4-carbonitrile]	3.84		
CCSc1ccc(Br)nc1-c1nc2cc(C(F)(F)F)nc(C#N)c2n1C [Example 6, 2-[6-bromo-3-(ethylsulfanyl)pyridin-2-yl]-3-methyl-6-(trifluoromethyl)-3H-imidazo[4,5-c]pyridine-4-carbonitrile]	3.87		
CCSc1ccc(Br)nc1-c1nc2cc(C(F)(F)F)nc(C)c2n1C [Example 4, 2-[6-bromo-3-(ethylsulfanyl)pyridin-2-yl]-3,4-dimethyl-6-(trifluoromethyl)-3H-imidazo[4,5-c]pyridine]	3.36		
CCSc1ccc(Br)nc1-c1nc2cc(C(F)(F)F)nc(I)c2n1C [Example 2, 2-[6-bromo-3-(ethylsulfanyl)pyridin-2-yl]-4-iodo-3-methyl-6-(trifluoromethyl)-3H-imidazo[4,5-c]pyridine]	4.34		
CCS(=O)(=O)c1ccc(-n2cncn2)nc1-c1nc2cc(C(F)(F)F)nc(Cl)c2n1C [compound 3]		100	efficacy (Spodoptera frugiperda): 100%; efficacy (Myzus persicae [3]; application rate 20 g/ha): 100%; efficacy (Myzus persicae [3]; application rate 100 g/ha): 100%
CCSc1ccc(Br)nc1-c1nc2cc(C(F)(F)F)nc(Cl)c2n1C [Example 7, 2-[6-bromo-3-(ethylsulfanyl)pyridin-2-yl]-4-chloro-3-methyl-6-(trifluoromethyl)-3H-imidazo[4,5-c]pyridine]	4.18		
CCS(=O)(=O)c1ccc(-n2cncn2)nc1-c1nc2cc(C(F)(F)F)nc(C)c2n1C [compound 2]		100	efficacy (Myzus persicae [3]; application rate 20 g/ha): 90%; efficacy (Phaedon cochleariae): 83%
CCSc1ccc(Cl)nc1-c1nc2cc(C(F)(F)F)nc(I)c2n1C [Example 1, 2-[6-chloro-3-(ethylsulfanyl)pyridin-2-yl]-4-iodo-3-methyl-6-(trifluoromethyl)-3H-imidazo[4,5-c]pyridine]	4.17		
CCS(=O)(=O)c1ccc(-n2cncn2)nc1-c1nc2cc(C(F)(F)F)nc(C#N)c2n1C [Compound No. 1, 2-[3-(ethylsulfonyl)-6-(1H-1,2,4-triazol-1-yl)pyridin-2-yl]-3-methyl-6-(trifluoromethyl)-3H-imidazo[4,5-c]pyridine-4-carbonitrile]		100	efficacy (Phaedon cochleariae): 83%
